Source: PMC4850449, “Bufexamac ameliorates LPS-induced acute lung injury in mice by targeting LTA4H” (Scientific Reports, 2016)

Molecular target: T1, LTA4H (leukotriene A4 hydrolase) (Homo sapiens, UniProt P09960)
T1 sequence (P09960 2-611): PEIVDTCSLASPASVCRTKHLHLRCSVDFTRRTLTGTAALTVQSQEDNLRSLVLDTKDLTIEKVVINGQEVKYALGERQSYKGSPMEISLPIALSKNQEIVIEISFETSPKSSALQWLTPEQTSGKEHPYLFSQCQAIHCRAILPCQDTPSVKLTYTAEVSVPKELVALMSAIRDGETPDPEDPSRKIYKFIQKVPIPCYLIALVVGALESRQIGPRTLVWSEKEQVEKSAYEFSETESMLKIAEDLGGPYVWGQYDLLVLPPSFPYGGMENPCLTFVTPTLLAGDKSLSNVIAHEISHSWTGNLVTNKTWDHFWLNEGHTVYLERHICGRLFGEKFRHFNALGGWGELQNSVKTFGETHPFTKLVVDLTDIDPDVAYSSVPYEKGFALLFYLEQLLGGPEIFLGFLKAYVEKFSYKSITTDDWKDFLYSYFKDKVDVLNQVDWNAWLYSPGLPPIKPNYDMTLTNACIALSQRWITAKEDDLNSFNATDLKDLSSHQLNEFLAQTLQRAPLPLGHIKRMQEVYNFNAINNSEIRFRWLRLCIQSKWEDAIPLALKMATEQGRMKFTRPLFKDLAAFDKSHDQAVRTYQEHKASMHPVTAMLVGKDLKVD
Test: X-ray co-crystal structure ([…] Å); purified enzyme inhibition (epoxide hydrolase IC50 […], aminopeptidase IC50 […])
Format: biochemical

CCCCOc1ccc(CC(=O)NO)cc1 [Bufexamac]
IC50: 11.6 µM
